Among the data in ChEMBL document CHEMBL1201862, “PubChem BioAssay data set” (2004) are EC50, CC50 and AC50 values, retold here.

Data set [1] is described as follows: NIH-3T3 fibroblast cytotoxicity, dose response, cytotoxicity control, cell-based, fluorescence, Alamar Blue, secondary assay (AID 2327).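 Note: NIH-3T3 mouse fibroblasts cultured with fluconazole at 8 µg/mL.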 It counts as functional.
Data set [2] is described as follows: fluconazole-exposed Candida albicans growth modulators – fluorescence, retest, confirmation (AID 2467). It counts as functional, cell-based.
Data set [3] concerns Streptococcus sp. 'group A'. Briefly: Streptococcus pyogenes SK(-)GAS viability under kanamycin – luminescence, BacTiterGlo, confirmation, counter-screen for streptokinase expression inhibitor project, dose response (AID 1900). It counts as functional, organism-based.
The test system of data set [4] is Streptococcus. Briefly: GAS UMAA2166 growth inhibition – luminescence, BacTiterGlo, counter-screen for streptokinase expression inhibitor project, dose response (AID 1915).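 Note: potency for reduction of bacterial viability or growth.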 It counts as functional, organism-based.
Data set [5] concerns the target T1, Heat shock factor protein 1 (Mus musculus, UniProt P38532).
T1 sequence (P38532 whole entry): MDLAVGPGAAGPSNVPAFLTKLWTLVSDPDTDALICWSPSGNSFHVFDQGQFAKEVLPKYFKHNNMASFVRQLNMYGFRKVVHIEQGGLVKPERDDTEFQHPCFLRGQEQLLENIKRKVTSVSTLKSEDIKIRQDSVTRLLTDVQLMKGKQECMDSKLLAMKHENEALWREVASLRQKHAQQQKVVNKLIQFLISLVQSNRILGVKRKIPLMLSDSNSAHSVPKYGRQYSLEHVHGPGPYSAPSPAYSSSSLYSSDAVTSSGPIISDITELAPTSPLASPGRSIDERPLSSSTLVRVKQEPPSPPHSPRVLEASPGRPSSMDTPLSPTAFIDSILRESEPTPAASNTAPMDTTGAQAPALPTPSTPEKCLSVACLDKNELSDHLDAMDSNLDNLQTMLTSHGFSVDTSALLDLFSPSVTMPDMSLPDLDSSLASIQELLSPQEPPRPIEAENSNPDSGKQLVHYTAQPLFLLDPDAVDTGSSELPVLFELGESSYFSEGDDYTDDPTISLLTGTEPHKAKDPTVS
Briefly: decrease of HSF1-responsive luciferase luminescence – cell-based, NIH3T3, dose retest, confirmation (AID 2382).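 Note: NIH3T3 fibroblasts with HSF1-driven luciferase reporter stressed by proteasome inhibitor MG132; luminescence from HSF1-driven luciferase expression after 8 hours of MG132 stress.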 It counts as functional.

Data set [6] can be described thus: Trypanosoma cruzi growth suppression in host cells – NIH3T3 host cells, beta-gal luminescence, confirmation (AID 2044).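 Note: intracellular parasites grown in NIH/3T3 mouse fibroblasts as host cells; luminescent beta-galactosidase reporter signal from transgenic T. cruzi replicating inside host cells; inhibitors lower the luminescence signal.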 It counts as functional, cell-based.
A short description of data set [7]: NIH3T3 cell viability loss – ATP luminescence, mouse fibroblasts, counter-screen, dose response (AID 2010).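 Note: cells exposed to compound for about 90 hours before reading.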 It counts as functional, cell-based.
Data set [8] in a line: viability of uninfected HEp-2 cells – cell-based, HTS, cytotoxicity control for RSV inhibitor project, dose response (AID 2410). The settings on record: human respiratory syncytial virus. It counts as functional.
Data set [9] concerns the target Cytochrome P450 2C19 (Homo sapiens, UniProt P33261). Briefly: Cytochrome panel assay with activity outcomes. Panel member name: p450-cyp2c19 Compounds with AC50 equal or less than 10 uM are considered active. It counts as functional.

Calls of active or inactive are those of the source. A value given as a limit tells only on which side of the number the result lay.

Cytochrome P450 2C19, sequence (P33261 whole entry): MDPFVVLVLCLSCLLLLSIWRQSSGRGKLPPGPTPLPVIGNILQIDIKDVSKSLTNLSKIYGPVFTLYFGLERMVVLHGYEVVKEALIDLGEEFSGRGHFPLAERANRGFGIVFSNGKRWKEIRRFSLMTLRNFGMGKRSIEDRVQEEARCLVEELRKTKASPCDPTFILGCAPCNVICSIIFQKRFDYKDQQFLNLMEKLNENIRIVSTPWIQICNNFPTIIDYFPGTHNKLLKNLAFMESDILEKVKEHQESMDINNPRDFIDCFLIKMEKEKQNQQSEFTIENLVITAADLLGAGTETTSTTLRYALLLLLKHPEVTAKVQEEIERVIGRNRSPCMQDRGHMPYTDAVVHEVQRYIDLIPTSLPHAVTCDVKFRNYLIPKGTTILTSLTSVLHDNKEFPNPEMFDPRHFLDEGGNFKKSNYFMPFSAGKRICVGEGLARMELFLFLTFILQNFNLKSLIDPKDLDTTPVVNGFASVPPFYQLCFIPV

Take `O=C(Cc1cccs1)Nc1cccc(-c2nc3ccccc3[nH]2)c1`: the half-maximal effective concentration (EC50) in data set [1] was > 150 µM (inconclusive); in [2] it was 3.52 µM (active).

With `CC(C)C[C@H](NC(=O)c1[nH]cnc1C(=O)N[C@@H](Cc1ccccc1)C(=O)OC(C)(C)C)C(=O)OC(C)(C)C`, the EC50 is 2.33 µM (active) in data set [3] and 5.07 µM (active) in data set [4].

For `Nc1cccc(/C=C/C(=O)O)c1`, in [5], the EC50 was > 195 µM (not active).

Turning to `Cc1nc2c(=O)oc3ccccc3c2n1-c1ccccc1`, the EC50 was > 150 µM (inactive) in data set [1] and 2.15 µM (active) in data set [2].

For `C=CCN(C(=O)CSC1=NC(=O)CN1C(C)=O)c1nc(C)c(-c2ccccc2)s1`, the figures for the EC50 in [6] and in [7] were 1.58 µM (active) and > 30 µM (not active), respectively.

In the case of `COC(=O)C1=C(C)N(c2ccc(Cl)cc2)/C(=C/c2ccc(O)cc2)C1=O`, the CC50 in [8] was 36.3 µM (active).

Take `Nc1ccn([C@H]2O[C@@H](COP(=O)(O)O)[C@@H](O)[C@H]2O)c(=O)n1`: the AC50 entry in data set [9] is given as “inconclusive”.

As to `CN1CCN(Cc2ccc(Sc3ccc(Cl)cc3)c([N+](=O)[O-])c2)CC1`, the EC50 in [6] was 1.13 µM (active); in [7], > 60 µM (not active).

Turning to `N#Cc1cc2c(nc1SCC(=O)N1CCOCC1)CCCCC2`, the EC50 in [5] is 2.01 µM (active).

Consider `COC(=O)c1cccc(NC(=O)CN2CCN(Cc3ccccc3)CC2)c1`, for which the EC50 in data set [5] is > 195 µM (not active).

On to `Cn1c(=O)c(=O)n(C)c2cc(S(=O)(=O)NCCN3CCN(c4ccccc4F)CC3)ccc21`, for which the EC50 in data set [6] is 0.496 µM (active); in data set [7] it was > 60 µM (not active).

For `Cc1ccccc1-c1nc2sc3c(c2c(=O)n1N)CCCC3`, the EC50 in [5] is given as > 195 µM (not active).

As to `O=c1[nH]c(NCCO)nc2c1C1(CCCCC1)Cc1ccccc1-2`, the CC50 in data set [8] was > 50 µM (active).

As for `Cn1c(=O)c2cn(-c3ccc4c(c3)OCCO4)cc2n(C)c1=O`, the EC50 in data set [5] is recorded as > 195 µM (not active).

Consider `CCCCn1c(-c2ccco2)nc2oc3ccccc3c(=O)c2c1=O`, for which the concentration giving a half-maximal response (EC50) was 64 µM (active) in data set [3] and 46.1 µM (active) in data set [4].

Regarding `Cc1ccccc1N1CCN(CCN2C(=O)CC(=C3c4ccccc4-c4ccccc43)C2=O)CC1`, the EC50 in data set [1] was > 160 µM (inactive); in data set [2] it was 3.89 µM (active).

Consider `O=C(NCC1CCCO1)c1cc2c3ccccc3nc-2c(-c2cccc(Br)c2)[nH]1` (centres undefined), for which the EC50 was 0.882 µM (active) in data set [6] and > 60 µM (not active) in [7].

For the compound `CCCCCCCCn1c(N2CCN(c3cccc(Cl)c3)CC2)nc2c1c(=O)[nH]c(=O)n2C`, the EC50 in [6] is 2.22 µM (active); in data set [7] it was > 60 µM (not active).

With `CC(=O)NC12CC3CC(C1)CC(C(=O)Oc1ccc(N(C)S(=O)(=O)c4cc(C)ccc4C)cc1)(C3)C2`, the CC50 in data set [8] was 34.2 µM (active).

Take `CC(=O)COc1ccc2c3c(c(=O)oc2c1)CCCC3`: the cytotoxic concentration (CC50) in data set [8] was > 50 µM (active).

Regarding `Fc1cccc(Cl)c1Cn1nnc(-c2ccc3c(c2)OCO3)n1`, the CC50 in data set [8] is 26.2 µM (active).

As to `CNC(S)=Nc1sc2c(c1C(=O)OC)CCC2`, in data set [8], the CC50 was 36.2 µM (active).

Take `Cc1cc(C)n(C(=O)c2ccncc2)n1`: in data set [5], the EC50 was > 195 µM (not active).

In the case of `COc1ccccc1Cn1c(=O)c2ccccc2n2c(Sc3ncnc4sccc34)nnc12`, in [8], the CC50 was 19.6 µM (active).

`CSc1cc(-c2ccccc2)n(C)c(=O)c1C#N`: the EC50 in data set [1] was 117 µM (active); in data set [2] it was > 38 µM (not active).

For `CCn1c2ccc(F)cc2c2nnc(SCCN3CCCCC3)nc21`, the values for the EC50 in data set [6] and in data set [7] were 0.777 µM (active) and > 60 µM (not active), respectively.

Turning to `CCN1C(=O)/C(=C2/C(=O)Nc3ccccc32)c2cc(Br)ccc21`, the EC50 in data set [6] is 1.3 µM (active); in data set [7] it was > 60 µM (inconclusive).

With `COC(=O)/C(=N/Nc1ccc(C)cc1)N1CCCc2ccccc21`, the CC50 in [8] was 22.3 µM (active).

For the compound `CCNc1nc(NCC)nc(ON=C(C)C)n1`, the AC50 in data set [9] (read-out: AC50) is 17.8 µM (inconclusive).

As to `c1ccc(-c2nn[nH]n2)nc1`, in [5], the 50% effective concentration (EC50) is recorded as > 195 µM (not active).

As for `Cc1c(O)cccc1C(=O)N[C@@H](CSc1ccccc1)[C@H](O)CN1C[C@H]2CCCC[C@H]2C[C@H]1C(=O)NC(C)(C)C`, the EC50 in [6] was 3.42 µM (active); in [7], > 60 µM (not active).

Take `CCOc1ccc(NCC(=O)c2ccc(C)cc2)cc1`: the EC50 in [5] is > 195 µM (not active); in [6], 1.38 µM (active); in data set [7], > 30 µM (not active).

Turning to `Cc1ccc(-c2csc(NC(=O)c3ccc(S(=O)(=O)N4CCc5ccccc54)cc3)n2)cc1`, the half-maximal effective concentration (EC50) in [5] is > 195 µM (not active).

Regarding `CCc1c(C)sc(NC(=O)CN2CCN(C(=O)c3ccco3)CC2)c1C(=O)OC`, the CC50 in data set [8] is 12.7 µM (active).

As for `COc1ccc(CCNC(=O)[C@H](C)N2C(=O)N3CCc4c([nH]c5ccccc45)[C@@]3(C)C2=O)cc1`, the EC50 in data set [6] was 1.97 µM (active); in [7] it was > 60 µM (not active).

For `O=C(COC(=O)c1cc[n+]([O-])cc1)Nc1cccc(Cl)c1Cl`, in data set [5], the EC50 is 23 µM (active).

On to `O=C(COC(=O)c1cc(Cl)ccc1O)NNC(=O)c1ccc([N+](=O)[O-])cc1`, for which the EC50 in data set [5] is > 195 µM (not active).

On to `COc1ccc(CCn2c(C)cc3c(c2=O)C(c2ccc4c(c2)OCO4)C(C#N)=C(N)O3)cc1OC` (centres undefined), for which the values for the EC50 in data set [1] and in [2] were > 160 µM (inactive) and > 38 µM (not active), respectively.

Take `O=C(CCc1ccc(Oc2cc([N+](=O)[O-])cc([N+](=O)[O-])c2)cc1)NC1CCCC1`: the results for the EC50 in data set [6] and in data set [7] were 0.106 µM (active) and > 30 µM (not active), respectively.

On to `CCCCNC(=O)NS(=O)(=O)c1cnccc1Sc1ccc(Cl)cc1`, for which the half-maximal activity concentration (AC50) in data set [9] (read-out: AC50) was 22.4 µM (inconclusive).

On to `Cc1cccc(OCC(=O)OC2CCN(C)CC2)c1`, for which the EC50 in data set [5] is recorded as > 195 µM (not active).

With `CCOc1ccc(CN2CCC(C(=O)N3CCN(c4ccccc4F)CC3)CC2)cc1OC`, the EC50 in [6] is 0.182 µM (active); in data set [7] it was > 30 µM (not active).

Consider `CCC(=O)Nc1ccccc1C(=O)OCC(=O)c1ccc2ccccc2c1`, for which, in data set [8], the CC50 was 25 µM (active).

In the case of `O=[N+]([O-])c1ccc(C2CCCC/C2=N/OCc2ccc(F)cc2)c([N+](=O)[O-])c1` (centres undefined), the EC50 in [1] was > 160 µM (inactive); in data set [2], 21.6 µM (active); in data set [6], 0.492 µM (active); in data set [7] it was > 60 µM (not active).

On to `Cc1ccc(S(=O)(=O)N(C)c2c(C)ccc(S(=O)(=O)N3CCN(C)CC3)c2C)cc1`, for which the EC50 in data set [5] was > 195 µM (not active).

Turning to `O=C(CSCc1ccc(Cl)cc1)Nc1cc([N+](=O)[O-])ccc1O`, the EC50 in data set [1] is > 150 µM (inactive); in data set [2], 0.491 µM (active).

With `CC(C)(C)c1csc(NC(=O)Cn2cnc3ccccc3c2=O)n1`, the figures for the EC50 in data set [1] and in data set [2] were > 150 µM (inconclusive) and > 38 µM (not active), respectively.

Regarding `CCOc1ccc(CN(C)CC(=O)Nc2cccc(S(=O)(=O)N(C)c3ccccc3)c2)cc1`, the EC50 in [6] was 0.181 µM (active); in data set [7], > 60 µM (not active).

Turning to `CC(C)(C)NS(=O)(=O)c1cc2c3c(c1)CCN3C(=O)CC2`, in data set [5], the EC50 is > 195 µM (not active).

`O=C(Oc1ccc2ccc(=O)oc2c1)c1ccco1`: the EC50 in [6] and in [7] was > 60 µM (not active) in each case.

As for `CCNc1nc(NC(C)C)nc(N2CC(=O)N(CC(=O)OCC)C2=N)n1`, in data set [8], the CC50 is 25.2 µM (active).

For `CN1CCN(Cc2cccc(Oc3ccc(Cl)cc3)c2)CC1`, the EC50 was 0.267 µM (active) in [6] and > 60 µM (inconclusive) in [7].

As to `CC1(C)Cc2c(C#N)c(SCCOc3ccccc3)nc(N3CCOCC3)c2CO1`, the EC50 is 1.49 µM (active) in data set [6] and > 60 µM (not active) in data set [7].

Consider `COc1ccc(C(=O)C2CCCN(S(=O)(=O)c3ccccc3F)C2)c(C)c1` (centres undefined), for which the EC50 in data set [5] is reported as > 195 µM (not active).

Regarding `CCc1nnc(NC(=O)CSc2nnc(CNc3cccc(C)c3)n2-c2ccccc2)s1`, the EC50 is > 150 µM (inactive) in [1] and > 38 µM (not active) in [2].

For `N#Cc1ccc(OCCOCCNC2CCCC2)cc1`, the EC50 was 0.2 µM (active) in data set [6] and > 60 µM (not active) in data set [7].

Regarding `O=C(N/N=C/c1cccc(Oc2ccccc2)c1)c1cccc(Br)c1`, the CC50 in [8] is 17 µM (active).

In the case of `Cc1ccc(NC(=O)CC2SC(N/N=C3\CCCc4ccccc43)=NC2=O)cc1` (centres undefined), the CC50 in data set [8] is 15.5 µM (active).
